Measurements taken from patent publication US9695155B2, “Herbicidal substituted pyrimidinyloxy benzene compounds” (E. I. DU PONT DE NEMOURS AND COMPANY, priority 2013, dated 2017).

Tests used:
sedge, umbrella = test: Test B flooded paddy test; format: in vivo, Cyperus difformis; conditions: Flood, 250 g ai/ha; 0 to 100 scale where 0 is no effect and 100 is complete control
Summary of the method: (§1)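 Plants at 2-leaf stage; pots flooded to 3 cm above soil and compound applied directly into paddy water, depth held throughout. After 13 to 15 days in greenhouse, visual rating versus controls on 0 (no effect) to 100 (complete control) scale.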

pigweed [1] = test: Test A preemergence; format: in vivo, Amaranthus retroflexus; conditions: for Pigweed plant response rating: 500 g ai/ha
Summary of the method: (§2)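 Pre- and postemergence greenhouse screen. Soil: loam + sand. Spray carrier: solvent mixture, non-phytotoxic, with surfactant. Post timing at 1–2 leaves, height 2–10 cm. Readout: visual injury on a 0–100 scale roughly 10 days after application, untreated plants as reference.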

morningglory [2] = test: Test A preemergence; format: in vivo, Ipomoea spp.; conditions: for Morningglory plant response rating: 500 g ai/ha
Summary of the method: as §2

morningglory [3] = test: Test A postemergence; format: in vivo, Ipomoea spp.; conditions: 0 to 100 scale where 0 is no effect and 100 is complete control; for Morningglory plant response rating: 125 g ai/ha; for Plant response rating, Morningglory: 500 g ai/ha
Summary of the method: as §2

velvetleaf [4] = test: Test A postemergence; format: in vivo, Abutilon theophrasti; conditions: 0 to 100 scale where 0 is no effect and 100 is complete control; for Velvetleaf plant response rating: 125 g ai/ha; for Plant response rating, Velvetleaf: 500 g ai/ha
Summary of the method: as §2

wheat [5] = test: Test A postemergence; format: in vivo, Triticum aestivum; conditions: 0 to 100 scale where 0 is no effect and 100 is complete control; for Wheat plant response rating: 125 g ai/ha; for Plant response rating, Wheat: 500 g ai/ha
Summary of the method: as §2

corn [6] = test: Test A preemergence; format: in vivo, Zea mays; conditions: 0 to 100 scale where 0 is no effect and 100 is complete control; for Plant response rating, Corn: 125 g ai/ha; for Corn plant response rating: 500 g ai/ha
Summary of the method: as §2

corn [7] = test: Test A postemergence; format: in vivo, Zea mays; conditions: 0 to 100 scale where 0 is no effect and 100 is complete control; for Corn plant response rating: 125 g ai/ha; for Plant response rating, Corn: 500 g ai/ha
Summary of the method: as §2

giant foxtail [8] = test: Test A preemergence; format: in vivo, Setaria faberii; conditions: 0 to 100 scale where 0 is no effect and 100 is complete control; for Plant response rating, Foxtail, Giant: 125 g ai/ha; for Foxtail, Giant plant response rating: 500 g ai/ha
Summary of the method: as §2

velvetleaf [9] = test: Test A preemergence; format: in vivo, Abutilon theophrasti; conditions: for Velvetleaf plant response rating: 500 g ai/ha
Summary of the method: as §2

giant foxtail [10] = test: Test A postemergence; format: in vivo, Setaria faberii; conditions: 0 to 100 scale where 0 is no effect and 100 is complete control; for Foxtail, Giant plant response rating: 125 g ai/ha; for Plant response rating, Foxtail, Giant: 500 g ai/ha
Summary of the method: as §2

large (Lg) crabgrass [11] = test: Test A preemergence; format: in vivo, Digitaria sanguinalis; conditions: 0 to 100 scale where 0 is no effect and 100 is complete control; for Plant response rating, Crabgrass, Large: 125 g ai/ha; for Crabgrass, Large plant response rating: 500 g ai/ha
Summary of the method: as §2

barnyardgrass [12] = test: Test A preemergence; format: in vivo, Echinochloa crus-galli; conditions: 0 to 100 scale where 0 is no effect and 100 is complete control; for Plant response rating, Barnyardgrass: 125 g ai/ha; for Barnyardgrass plant response rating: 500 g ai/ha
Summary of the method: as §2

large (Lg) crabgrass [13] = test: Test A postemergence; format: in vivo, Digitaria sanguinalis; conditions: 0 to 100 scale where 0 is no effect and 100 is complete control; for Crabgrass, Large plant response rating: 125 g ai/ha; for Plant response rating, Crabgrass, Large: 500 g ai/ha
Summary of the method: as §2

barnyardgrass [14] = test: Test A postemergence; format: in vivo, Echinochloa crus-galli; conditions: 0 to 100 scale where 0 is no effect and 100 is complete control; for Barnyardgrass plant response rating: 125 g ai/ha; for Plant response rating, Barnyardgrass: 500 g ai/ha
Summary of the method: as §2

pigweed [15] = test: Test A postemergence; format: in vivo, Amaranthus retroflexus; conditions: 0 to 100 scale where 0 is no effect and 100 is complete control; for Pigweed plant response rating: 125 g ai/ha; for Plant response rating, Pigweed: 500 g ai/ha
Summary of the method: as §2

barnyardgrass [16] = test: Test B flooded paddy test; format: in vivo, Echinochloa crus-galli; conditions: Flood, 250 g ai/ha; 0 to 100 scale where 0 is no effect and 100 is complete control
Summary of the method: as §1

Heteranthera limosa = test: Test B flooded paddy test; format: in vivo; conditions: Flood, 250 g ai/ha; 0 to 100 scale where 0 is no effect and 100 is complete control
Summary of the method: as §1

wheat [17] = test: Test A preemergence; format: in vivo, Triticum aestivum; conditions: for Wheat plant response rating: 500 g ai/ha
Summary of the method: as §2

rice = test: Test B flooded paddy test; format: in vivo, Oryza sativa; conditions: Flood, 250 g ai/ha; 0 to 100 scale where 0 is no effect and 100 is complete control
Summary of the method: as §1

[18] = 125 g ai/ha, 0 to 100 scale where 0 is no effect and 100 is complete control
[19] = 0 to 100 scale where 0 is no effect and 100 is complete control

Row | SMILES | Plant response rating, Sedge, Umbrella (sedge, umbrella) | Pigweed plant response rating (pigweed [1]; [19]) | Morningglory plant response rating (morningglory [2]; [19]) | Morningglory plant response rating (morningglory [3]) | Plant response rating, Morningglory (morningglory [3]) | Velvetleaf plant response rating (velvetleaf [4]) | Plant response rating, Velvetleaf (velvetleaf [4]) | Wheat plant response rating (wheat [5]) | Plant response rating, Wheat (wheat [5]) | Plant response rating, Corn (corn [6]) | Corn plant response rating (corn [6]) | Corn plant response rating (corn [7]) | Plant response rating, Corn (corn [7]) | Plant response rating, Foxtail, Giant (giant foxtail [8]) | Foxtail, Giant plant response rating (giant foxtail [8]) | Velvetleaf plant response rating (velvetleaf [9]; [19]) | Foxtail, Giant plant response rating (giant foxtail [10]) | Plant response rating, Foxtail, Giant (giant foxtail [10]) | Plant response rating, Crabgrass, Large (large (Lg) crabgrass [11]) | Crabgrass, Large plant response rating (large (Lg) crabgrass [11]) | other results
1 | O=Cc1cccc(Oc2ncc(Br)cn2)c1-n1cc(C(F)(F)F)cn1 [Compound 161] | 0 | 100 | 0 | 0 | 0 | 10 | 20 | 0 | 0 | 0 | 0 | 0 | 0 | 0 | 0 | 20 | 0 | 0 | 0 | 0 | Plant response rating, Pigweed (pigweed [1]; [18]): 90; Plant response rating, Morningglory (morningglory [2]; [18]): 0; Plant response rating, Velvetleaf (velvetleaf [9]; [18]): 10; Plant response rating, Barnyardgrass (barnyardgrass [12]): 0; Barnyardgrass plant response rating (barnyardgrass [12]): 10; Crabgrass, Large plant response rating (large (Lg) crabgrass [13]): 0; Plant response rating, Crabgrass, Large (large (Lg) crabgrass [13]): 0; Barnyardgrass plant response rating (barnyardgrass [14]): 0; Plant response rating, Barnyardgrass (barnyardgrass [14]): 0; Pigweed plant response rating (pigweed [15]): 50; Plant response rating, Pigweed (pigweed [15]): 80; Plant response rating, Barnyardgrass (barnyardgrass [16]): 0; Plant response rating, Ducksalad (Heteranthera limosa): 0; Plant response rating, Wheat (wheat [17]; [18]): 0; Wheat plant response rating (wheat [17]; [19]): 0; Plant response rating, Rice (rice): 0
2 | O=Cc1cccc(Oc2ncc(F)cn2)c1-n1cc(C(F)(F)F)cn1 [Compound 162] | 40 | 100 | 0 | 0 | 10 | 10 | 50 | 0 | 0 | 0 | 0 | 0 | 10 | 0 | 0 | 50 | 0 | 0 | 0 | 10 | Pigweed plant response rating (0 to 100 scale) (pigweed [1]; 125 g ai/ha): 100; Morningglory plant response rating (0 to 100 scale) (morningglory [2]; 125 g ai/ha): 0; Velvetleaf plant response rating (0 to 100 scale) (velvetleaf [9]; 125 g ai/ha): 10; Plant response rating, Barnyardgrass (barnyardgrass [12]): 10; Barnyardgrass plant response rating (barnyardgrass [12]): 50; Crabgrass, Large plant response rating (large (Lg) crabgrass [13]): 0; Plant response rating, Crabgrass, Large (large (Lg) crabgrass [13]): 10; Barnyardgrass plant response rating (barnyardgrass [14]): 0; Plant response rating, Barnyardgrass (barnyardgrass [14]): 10; Pigweed plant response rating (pigweed [15]): 30; Plant response rating, Pigweed (pigweed [15]): 70; Plant response rating, Barnyardgrass (barnyardgrass [16]): 0; Plant response rating, Ducksalad (Heteranthera limosa): 35; Wheat plant response rating (0 to 100 scale) (wheat [17]; 125 g ai/ha): 0; Wheat plant response rating (wheat [17]; [19]): 0; Plant response rating, Rice (rice): 0
